{"source": "patent US20050142230A1", "about": "“Pharmic activity and manufacturing method of the production produced by six kinds of plant compound” (priority 2003, published 2005)", "tested_on": "male white mice", "test": "Hypnosis effect taking orally (lost righting reflex half minute)", "format": "in vivo", "conditions": "for The sleep animals: 30 mg/kg, n=25", "experimental": "The male white mice (weighing 18-22 g) were divided into groups at random. Every group had twenty five. Experimental group douched the stomach with the compound by 0.08, 0.3, 0.4 ml/10 g, pentobabital sodium 30 mg/kg, the control group gave the same volumn saline. Then put them into the constant temperature infant cabinet at 37° C. We observed the mumber of the mice sleep. The standard was the half minute continous lost righting reflexs (table 3 was the result). […] The compound wares had hypnosis effect."}
{"smiles": "CCCC(C)C1(CC)C(=O)N=C([O-])NC1=O.[Na+]", "note": "(centres unmarked) [Pentobabital sodium]", "values": [{"measurement": "The sleep animals", "setting": "5′", "result": 20, "unit": "TT"}, {"measurement": "The sleep animals", "setting": "30′", "result": 25, "unit": "TT"}, {"measurement": "The sleep animals", "setting": "60′", "result": 21, "unit": "TT"}, {"measurement": "The sleep animals", "setting": "90′", "result": 13}, {"measurement": "Hypnosis effect (in words)", "setting": "30 ml/kg as printed in text, mice", "result": "let them all sleep"}]}
